The text below walks through data of patent publication US11970708B2, “Gene therapy vector with minimizing recombination, recombinant retrovirus comprising the vector, and pharmaceutical composition for preventing or treating cancer comprising the recombinant retrovirus” (ARTICURE INC., priority 2020, dated 2024).

The test system of one series is U87MG cells. Briefly: Western blotting of thymidine kinase (TK) and yeast cytosine deaminase (yCD) protein in infected cells. The format is cell-based, human. Here is the method: After 3 days of initial infection, p1(passage 1)˜p10 cells were harvested and resuspended in 100 ? of T-PER tissue extraction agent (PIERCE, 78510)+1× proteinase inhibitor. Thereafter, the cells were broken by freezing-thawing three times, and the cytoplasmic supernatant was recovered by centrifugation at 13,000 rpm for 10 minutes. After quantifying the protein amount using BCA, 20 μg of cell lysate was taken and mixed with SDS sample loading dye to 1%. After reacting for 5 minutes in a 100° C. heat block, the reaction mixture was moved to ice and reacted for 2 minutes. Then, the reactant was loaded on 10% (TK) or 13.5% (yCD) SDS-PAGE gel, followed by electrophoresis. Upon completion of the electrophoresis, the protein was transferred to a NC (nitrocellulose) membrane at 90 V for 2 hours, and then put into a blocking solution (5% skim milk in 1X TBS-T), followed by reaction at room temperature for 1 hour. […] Then, the membrane was washed 4 times with 1× TBS-T at room temperature for 10 minutes, reacted in an ECL (enhanced chemiluminescence, Bio-rad Cat No. 170-5062) solution, and then analyzed in a chemiluminescence imaging system (ChemiDoc, Biorad CA). […]

In series [1] the test system is U-87MG cells. Briefly: Cell death of virus-infected cells upon prodrug (GCV, 5-FC) treatment, optical microscope. The note with it: MuLV env-based vectors, FIG. 16. More on the design: species or system human.
The test system of series [2] is U-87MG cells. The description is as above. More on the design: species or system human. The note with it: GaLV env-based vectors; prodrugs GCV 30 μg/ and 1 mM 5-FC; FIG. 12. Here is the method:
Specifically, the spRRVe-TK/sRRVgp-sEF1α-hopt-yCD virus was co-transfected into the 293T cell line using PLUS reagent (Invitrogen) and lipofectamine (Invitrogen). After 2 days, the supernatant of the virus was recovered, and U-87MG cells passaged in a 6-well plate at the density of 1.5×10^5 cells/well the previous day were infected with the virus and polybran at a concentration of 8 μg/ ? for 8 hours. Five days after infection (postinfection 5d), the cell supernatant was taken and re-infected to U-87MG cells passaged in a 6-well plate at the density of 1.5×10^5 cells/well the previous day (p1), and then sequentially infected up to p4 in the same way. Cells at each stage of infection were treated with trypsin-EDTA to make single cells, and passaged in a 12-well plate at the density of 1.5×10^5 cells/well, and from the next day after the passage, 30 μg/ ? of GCV and 1 mM 5-FC were treated for […], respectively, to confirm cell death.
Specifically, the virus containing spRRVe-F4-hopt-yCD/sRRVgp-TK, spRRVe-F4-hopt-yCD/sRRVgp-F1-TK, spRRVe-F4-hopt-yCD/sRRVgp-F2-TK, spRRVe-F4-hopt-yCD/sRRVgp-F3-TK and spRRVe-F4-hopt-yCD/sRRVgp-F4-TK was co-transfected into the 293T cell line using PLUS reagent (Invitrogen) and lipofectamine (Invitrogen). […]

Series [3] concerns brain tumor cell line U87MG. Briefly: Recombination type analysis by genomic DNA PCR after serial virus infection (passages). The conditions noted are these: spRRVe-yCD/sRRVgp-TK virus. The class given is cell-based, human. Here is the method: After 3 days of initial infection, the cultured supernatant was taken and re-infected to new U87MG, and the infected U87MG cell line was recovered and genomic DNA was isolated.
The replicating-retrovirus vector for gene therapy is highly likely to cause recombination because the size of genomic RNA is increased by the introduced foreign gene and non-homologous sequences are added. Therefore, in order to construct an efficient and stable replicating-retrovirus vector for gene therapy, it is very important to confirm the presence and degree of recombination at the development stage.
Specifically, polymerase chain reaction was performed using the primers listed in Table 1 below capable of specifically amplifying the env vector. […] 100 ng of genomic DNA, 1X reaction buffer, 0.25 mM dNTP, 0.2 pmol forward primer, 0.2 pmol reverse primer, and 0.2 unit Taq polymerase were added to a PCR reaction tube, and sterilized distilled water was added to make the final volume of 20 ? . Then, After PCR was performed under the conditions shown in Table 1 below, the amplified DNA was loaded on a 1% agarose gel to confirm the PCR amplification product, thereby confirming the infectivity of the virus and whether the recombination occurred. […]

In the case of “sRRVe-TK: MuLV env vector, 646 bp MCMV promoter, TK gene (SEQ. ID. NO: 33)”, the “thymidine kinase (TK) protein expression” value in the series on U87MG cells (MuLV env-based vectors, FIG. 15) is given as “continuously expressed”. Moreover, in the series on U-87MG cells [1], the “cell death upon prodrug treatment” value was “cell death is induced”.
With “spRRVe-TK: GaLV env vector, 646 bp MCMV promoter, TK gene (SEQ. ID. NO: 27)”, the “cell death upon prodrug treatment” value with U-87MG cells [2] was “cell death is induced”. For the same substance, the “thymidine kinase (TK) protein expression” value with U87MG cells (GaLV env-based vectors with sRRVgp-sEF1α-hopt-yCD, 0.1 MOI, p1-p10, FIG. 10) was “continuously expressed”.
With “spRRVe-yCD: GaLV env vector with full-length MCMV promoter and yCD gene (SEQ. ID. NO: 25)”, the “virus proliferation and infection (PCR products detected)” value in series [3] (day 3 of initial infection and passages 1 to 3) was “virus proliferation and infection progressed”. Besides, the “passage from which PCR products smaller than the expected amplification product were detected (recombination)” value in series [3] (full-length MCMV promoter, 2E7 gc, GaLV 1624F/MFGSacIR primers, up to passage 3) worked out at 2 passage.
